The results in this text go back to patent publication EP0519971B1, “NOVEL […] ACTIVE COMPOUNDS WHICH CAN BE FORMED FROM 1,3,4,6,7,8-HEXAHYDRO-2H-PYRIMIDO-(1,2-a)-PYRIMIDINE” (priority 1990, dated 1991).

Some results are limits rather than exact numbers.

The first data set can be described thus: Solubility in water of TBD salts (crude samples). It counts as physicochemical.
Details: not given
The procedure:
Solubilities were determined with the crude samples and indicate the volume of water sufficient to dissolve one gram of the salt.
`C1CN=C2NCCCN2C1.O=C(O)c1cc([N+](=O)[O-])ccc1O` [Example 13, TBD 5-nitrosalicylate (2-hydroxy-5-nitrobenzoate)]: the Solubility in water is recorded as no less than 160 g/100ml.
On to `C1CN=C2NCCCN2C1.C1CN=C2NCCCN2C1.O=C(O)c1cc(C(=O)O)cc([N+](=O)[O-])c1` [Example 17, TBD 5-nitroisophthalate (5-nitrobenzene-1,3-dicarboxylic acid bis TBD salt)], for which the Solubility in water is no less than 30 g/100ml.
Still for that read-out and setting: the same measure for `C1CN=C2NCCCN2C1.O=C(O)c1ccc([N+](=O)[O-])c(O)c1` [Example 14, TBD 3-hydroxy-4-nitrobenzoate]: no less than 30 g/100ml; for “TBD 5-amino-5-hydroxybenzoate [Example 16]”: no less than 10 g/100ml; for `C1CN=C2NCCCN2C1.O=C(O)c1ccc(Cl)c([N+](=O)[O-])c1` [Example 12, TBD 4-chloro-3-nitrobenzoate]: no less than 40 g/100ml.
On the same count and under the same terms, as for `C1CN=C2NCCCN2C1.O=C(O)Cc1ccc([N+](=O)[O-])cc1[N+](=O)[O-]` [Example 10, TBD 2,4-dinitrophenylacetate], the figure is no less than 30 g/100ml; as for `C1CN=C2NCCCN2C1.O=C(O)Cc1ccc([N+](=O)[O-])cc1` [Example 9, TBD 4-nitrophenylacetate], no less than 20 g/100ml; as for `C1CN=C2NCCCN2C1.O=C(O)c1cc(Cl)ccc1[N+](=O)[O-]` [Example 11, TBD 5-chloro-2-nitrobenzoate], no less than 40 g/100ml.
On the same count and under the same terms, the same measure for `C1CN=C2NCCCN2C1.O=C(O)c1ccccc1I` [Example 15, TBD 2-iodobenzoate]: no less than 10 g/100ml; for `C1CN=C2NCCCN2C1.O=C(O)c1ccc(Cl)cc1[N+](=O)[O-]` [Example 8, TBD 4-chloro-2-nitrobenzoate]: no less than 10 g/100ml.

Assay in the next data set: not given
Particulars: pH 6.5.
As for `C1CN=C2NCCCN2C1.O=C(O)c1cc2ccccc2[nH]1` [Example 2, salt of 1,5,7-triazabicyclo-[4.4.7]dec-5-ene (TBD, HHPP) with indole-2-carboxylic acid], the “Solubility in distilled water” value turned out to be 70 mg/mL.

The same data set, now with this note: solution in water.
Regarding `C1CN=C2NCCCN2C1.O=C(O)c1cc2ccccc2[nH]1` [Example 2, salt of 1,5,7-triazabicyclo-[4.4.7]dec-5-ene (TBD, HHPP) with indole-2-carboxylic acid], the pH of solution is reported as 6.5.
